Key:
memory CD4+ T cells = test: Ki67 expression by whole blood flow cytometry, memory CD4+ T cells; format: in vivo, rhesus macaque; conditions: for Ki67 expression in memory CD4+ T cells: AZD5582 treated infant RMs
Experimental: (§1) The ncNF-κB pathway plays an important role in regulating T cell differentiation without causing broad systemic inflammation ([22]). We have previously observed a stimulatory effect on peripheral T cells following AZD5582 treatment specifically measurable through increased intracellular Ki67 expression ([17]). To further assess the effect of AZD5582 on infant RMs, flow cytometry was performed longitudinally on whole blood on the day of doses 1, 3, 6, and 9 and both 48 to 72h and 7 days after each of these doses. These time points were selected to allow longitudinal evaluation while remaining within blood volume constraints.
(§2) Multicolor flow cytometric analysis was performed on whole blood (WB) or cell suspensions using predetermined optimal concentrations of the following fluorescently conjugated monoclonal antibodies (MAbs). For WB T cell analysis the following MAbs were used: CD3-allophycocyanin (APC)-Cy7 (clone SP34-2), CD95-phycoerythrin (PE)-Cy5 (clone DX2), Ki67-AF700 (clone B56), HLA-DR-peridinin chlorophyll protein (PerCP)-Cy5.5 (clone G46-6), CCR7-fluorescein isothiocyanate (FITC) (clone 150503), CCR5-APC (clone 3A9), CD62L (clone SK11), and CD45-RA-PE-Cy7 (clone L45) from BD Biosciences; CD8-BV711 (clone RPA-T8), CD4-BV650 (clone OKT4), and PD-1-BV421 (clone EH12.2H7) from BioLegend; and CD28-ECD (clone CD28-2) from Beckman-Coulter. Flow cytometric acquisition and analysis of samples were performed on at least 100,000 events on an AURORA flow cytometer driven by the SpectroFlo software package (Cytek). Analyses of the acquired data were performed using FlowJo version 10.0.4 software (TreeStar).

[1] = test system: SIV gag DNA in CD4+ T cells; test: Cell-associated SIV DNA / RNA in CD4+ T cells; format: in vivo; conditions: before dose 1, 3dp- and 2wp-AZD5582 treatment, infant RMs
Experimental: Plasma viral quantification was performed as described previously ([12]). The frozen cell pellet was lysed with proteinase K (100 μg/mL in 10 mM Tris-HCl pH 8) for 1h at 56°C. Quantification of SIVmac gag DNA was performed by quantitative PCR (qPCR) using the 5′ nuclease (TaqMan) assay with an ABI7500 system (PerkinElmer Life Sciences). The sequence of the forward primer for SIVmac gag was 5′-[…]-3′, the reverse primer sequence was 5′-[…]-3′, and the probe sequence was 5′-6-carboxyfluorescein (FAM)-[…]-6-carboxytetramethylrhodamine (TAMRA)-3′. 7.5 μL of cell lysate were mixed in a 50 μL reaction mixture containing 1× Platinum Buffer, 3.5 mM MgCl2, 0.2 mM dNTP, primers 200 nM, probe 150 nM, and 2U Platinum Taq. For cell number quantification, quantitative PCR was performed simultaneously for monkey albumin gene copy number. The sequence of the forward primer for albumin was F 5′-[…]-3′; the reverse primer sequence was 5′- ATGGTCGCCTGTTCACCAA-3′ and the probe sequence was 5′-[…]-3′ ([34]). The reactions were performed on a 7500 real-time PCR system (Applied Biosystems) with the following thermal program: 10 min at 95°C, followed by 40 cycles of denaturation at 95°C for 15 s and annealing at 60°C for 1 min.

SIVmac239 = test system: SIVmac239; design: method as in PMID 31969707; conditions: adult RMs; cited from earlier work
[2] = Tolerability of repeated AZD5582 infusions in infant RMs; format: in vivo; conditions: 0.1 mg/kg i.v., 10 infusions
Experimental: The IAPi AZD5582 was reconstituted to 0.4 mg/mL in 10% Captisol within 1 week of administration as previously described ([17]). Monkeys assigned to the experimental intervention group received 10 administrations of 0.1 mg/kg AZD5582 by intravenous (i.v.) infusion with an inline filter for 30 minutes every week for 10 weeks.
EDTA-anticoagulated blood samples were collected regularly and used for a complete blood count, routine chemical analysis, and immunostaining, with plasma separated by centrifugation within 1 h of phlebotomy. PBMCs were prepared by density gradient centrifugation. Lymph node biopsy specimens were collected at indicated time points (Fig. 2A). Lymph nodes were ground using a 70-μm cell strainer. Cell suspensions were washed and immediately used for immunostaining or cryopreserved at −80°C until use.

memory CD8+ T cells = test: Ki67 expression by whole blood flow cytometry, memory CD8+ T cells; format: in vivo, rhesus macaque; conditions: for Ki67 expression in memory CD8+ T cells: AZD5582 treated infant RMs
Experimental: as §1, §2

[3] = before the increase seen after dose 1
[4] = baseline (immediately before doses 1, 3, 6, 9)
[5] = relative to three baseline measurements, treated infant RMs

CN[C@@H](C)C(=O)N[C@H](C(=O)N1CCC[C@H]1C(=O)N[C@H]1c2ccccc2C[C@H]1OCC#CC#CCO[C@@H]1Cc2ccccc2[C@@H]1NC(=O)[C@@H]1CCCN1C(=O)[C@@H](NC(=O)[C@H](C)NC)C1CCCCC1)C1CCCCC1 [AZD5582]
Mean Ki67 expression in peripheral memory CD4+ T cells (memory CD4+ T cells; 3-days post-AZD5582 (doses 1, 3, 6, 9), P = 0.02): 28.4% | Ki67 expression in memory CD4+ T cells (memory CD4+ T cells; 7 days following dose 1): 46.9% | Ki67 expression in memory CD4+ T cells (memory CD4+ T cells; [3]): 8.7% | Other markers of activation, including HLA-DR and PD-1 (memory CD4+ T cells; T cells following AZD5582 treatment, infant RMs): did not observe increases | Mean Ki67 expression in peripheral memory CD4+ T cells (memory CD4+ T cells; [4]): 21.0% | Average increase of Ki67 expression in memory CD4+ T cells after dose 1 (memory CD4+ T cells; [5]): 24.3% | Cell-associated SIV RNA in peripheral CD4+ T cells [1]: remained stable | SIV reactivation, events >60 copies/ml (SIVmac239): 64/140 | SIV reactivation, events >60 copies/ml (percent) (SIVmac239): 46% | SIV reactivation, per animal (RMs with on-ART viremia) (SIVmac239): 5/9 | SIV reactivation, per animal (percent) (SIVmac239): 56% | Tolerability / clinical adverse events [2]: well-tolerated and safe | Mean Ki67 expression in peripheral memory CD8+ T cells (memory CD8+ T cells; 3-days post-AZD5582 (doses 1, 3, 6, 9), P = 0.03): 26.5% | Ki67 expression in memory CD8+ T cells (memory CD8+ T cells; 7 days following dose 1): 46.7% | Ki67 expression in memory CD8+ T cells (memory CD8+ T cells; [3]): 5.1% | Mean Ki67 expression in peripheral memory CD8+ T cells (memory CD8+ T cells; [4]): 18.2% | Average increase of Ki67 expression in memory CD8+ T cells after dose 1 (memory CD8+ T cells; [5]): 23.3%

Source: PMC9006931, “Altered Response Pattern following AZD5582 Treatment of SIV-Infected, ART-Suppressed Rhesus Macaque Infants” (Journal of Virology, 2022)
